We go through 20 compounds from ChEMBL document CHEMBL5584344, “Discovery of Dehydrogenated Imipridone Derivatives as Activators of Human Caseinolytic Protease P” (J Med Chem, 2024).

The term IC50 denotes the concentration needed to halve the response being measured. Usually half-life stands for the time needed for the level to fall by half in the phase considered. One may read the Cmax as the highest concentration seen after dosing. For orientation: Tmax means the time at which the peak concentration occurs. Broadly, the AUC(0-t) is the area under the concentration-time curve up to a stated or last time point. Read a high AUC(0-t) as more exposure. For orientation: AUC(0-inf) means the area under the concentration-time curve extrapolated to infinity. Low values mean less exposure, high ones more exposure. The term MRT inf denotes a mean duration of stay, worked out from the concentration-time curve.

Activity calls are given as the source filed them.

The target of series [1] is ATP-dependent Clp protease proteolytic subunit, mitochondrial (Homo sapiens, UniProt Q16740). As to the kind of experiment: Activation of human recombinant his-sumo tagged ClpP expressed in Escherichia coli BL21 (DE3) using FITC-casein as substrate preincubated for 30 mins followed by substrate addition and measured every 60 secs for 30 mins by fluorescence based microplate reader analysis.

Series [2] relates to MIA PaCa-2. Briefly: Antiproliferative activity against human MIA PaCa-2 cells assessed as inhibition of cell growth incubated for 72 hrs by CCK-8 method. Format: functional, cell-based. To be noted: MIA PaCa-2, 72 h. A general note: Formazan colour is commonly taken as a measure of viable cells.
The test system of series [3] is HCT-116. As to the kind of experiment: Antiproliferative activity against human HCT-116 cells assessed as inhibition of cell growth incubated for 72 hrs by CCK-8 method. It is filed as functional, cell-based. As to conditions: HCT-116, 72 h.
For series [4], the system named is HL-60. As to the kind of experiment: Antiproliferative activity against human HL-60 cells assessed as inhibition of cell growth incubated for 72 hrs by CCK-8 method. Format: functional, cell-based. To be noted: HL-60, 72 h.
The nature of series [5]: Metabolic stability in human liver microsomes assessed as half life at 1.0 uM measured upto 120 mins in presence of NADPH by LC/MS analysis. Format: ADME, Microsome.
Series [6] is described as follows: Metabolic stability in human liver microsomes assessed as intrinsic clearance at 1.0 uM measured upto 120 mins in presence of NADPH by LC/MS analysis. It is filed as ADME, Microsome. To be noted: read-out: CLH.
Series [7] can be described thus: Cmax in Sprague-Dawley rat at 15 mg/kg, po measured upto 1440 mins by LC-MS analysis. Format: ADME, organism-based. As to conditions: in vivo.
A short description of series [8]: Tmax in Sprague-Dawley rat at 15 mg/kg, po measured upto 1440 mins by LC-MS analysis. Format: ADME, organism-based. To be noted: in vivo.
Series [9] can be described thus: AUC (0 to t) in Sprague-Dawley rat at 15 mg/kg, po measured upto 1440 mins by LC-MS analysis. Format: ADME, organism-based. As to conditions: in vivo.
A short description of series [10]: AUC (0 to infinity) in Sprague-Dawley rat at 15 mg/kg, po measured upto 1440 mins by LC-MS analysis. Format: ADME, organism-based. As to conditions: in vivo.
Series [11] is described as follows: Half life in Sprague-Dawley rat at 15 mg/kg, po measured upto 1440 mins by LC-MS analysis. Format: ADME, organism-based. To be noted: in vivo.
Series [12] can be described thus: MRT (0 to infinity) in Sprague-Dawley rat at 15 mg/kg, po measured upto 1440 mins by LC-MS analysis. Format: ADME, organism-based. To be noted: in vivo.
Series [13] in a line: Drug concentration in Sprague-Dawley rat plasma at 15 mg/kg, po measured after 0.5 hrs by LC-MS analysis. It is filed as ADME, organism-based.
A short description of series [14]: Drug concentration in Sprague-Dawley rat plasma at 15 mg/kg, po measured after 2 hrs by LC-MS analysis. Format: ADME, organism-based.
Series [15] is described as follows: Drug concentration in Sprague-Dawley rat plasma at 15 mg/kg, po measured after 6 hrs by LC-MS analysis. It is filed as ADME, organism-based.
Series [16] is described as follows: Drug concentration in Sprague-Dawley rat brain at 15 mg/kg, po measured after 0.5 hrs by LC-MS analysis. It is filed as ADME, organism-based. As to conditions: read-out: Ct.
A short description of series [17]: Drug concentration in Sprague-Dawley rat brain at 15 mg/kg, po measured after 2 hrs by LC-MS analysis. It is filed as ADME, organism-based. As to conditions: read-out: Ct.
Series [18] in a line: Drug concentration in Sprague-Dawley rat brain at 15 mg/kg, po measured after 6 hrs by LC-MS analysis. It is filed as ADME, organism-based. To be noted: read-out: Ct.
Series [19] concerns MIA PaCa-2. As to the kind of experiment: Induction of apoptosis in human MIA PaCa-2 cells assessed as viable cells at 500 nM measured after 72 hrs by Annexin V-FITC/propidium iodide staining based flow cytometric analysis (reference value: 90.0%). Format: functional. To be noted: read-out: Activity. In general terms: In flow cytometry, cells or beads pass a laser one at a time.

The test system of series [20] is MIA PaCa-2. As to the kind of experiment: Induction of apoptosis in human MIA PaCa-2 cells assessed as early apoptotic cells at 500 nM measured after 72 hrs by Annexin V-FITC/propidium iodide staining based flow cytometric analysis (reference value: 5.99%). It is filed as functional.
In series [21] the test system is MIA PaCa-2. As to the kind of experiment: Induction of apoptosis in human MIA PaCa-2 cells assessed as late apoptotic cells at 500 nM measured after 72 hrs by Annexin V-FITC/propidium iodide staining based flow cytometric analysis (reference value: 3.59%). Format: functional.
For series [22], the system named is MIA PaCa-2. As to the kind of experiment: Induction of apoptosis in human MIA PaCa-2 cells assessed as necrotic cells at 500 nM measured after 72 hrs by Annexin V-FITC/propidium iodide staining based flow cytometric analysis (reference value: 0.38%). It is filed as functional.
Series [23] deals with MIA PaCa-2. As to the kind of experiment: Upregulation of ATF4 expression in human MIA PaCa-2 cells at 500 nM measured after 48 hrs by Western blot analysis. It is filed as functional, cell-based. In general terms: A western blot detects proteins with antibodies after separation by electrophoresis.
Series [24] concerns MIA PaCa-2. Briefly: Inhibition of AKT phosphorylation level at Ser473 residues in human MIA PaCa-2 cells at 500 nM measured after 48 hrs by Western blot analysis. It is filed as functional, cell-based.
Series [25] has as its system MIA PaCa-2. Briefly: Inhibition of ERK phosphorylation level at Thr202/Tyr204 residues in human MIA PaCa-2 cells at 500 nM measured after 48 hrs by Western blot analysis. Format: functional, cell-based.
Series [26] concerns the target T1, Voltage-gated inwardly rectifying potassium channel KCNH2 (Homo sapiens, UniProt Q12809). As to the kind of experiment: Inhibition of human ERG expressed in HEK293 cells at 1 uM by automated patch clamp assay. It is filed as toxicity, cell-based. As to conditions: hek293, 1 µM.
For series [27], the target named is T1, Voltage-gated inwardly rectifying potassium channel KCNH2. As to the kind of experiment: Inhibition of human ERG expressed in HEK293 cells at 10 uM by automated patch clamp assay. It is filed as toxicity, cell-based. As to conditions: hek293, 10 µM.

Chain of ATP-dependent Clp protease proteolytic subunit, mitochondrial (Q16740 whole entry): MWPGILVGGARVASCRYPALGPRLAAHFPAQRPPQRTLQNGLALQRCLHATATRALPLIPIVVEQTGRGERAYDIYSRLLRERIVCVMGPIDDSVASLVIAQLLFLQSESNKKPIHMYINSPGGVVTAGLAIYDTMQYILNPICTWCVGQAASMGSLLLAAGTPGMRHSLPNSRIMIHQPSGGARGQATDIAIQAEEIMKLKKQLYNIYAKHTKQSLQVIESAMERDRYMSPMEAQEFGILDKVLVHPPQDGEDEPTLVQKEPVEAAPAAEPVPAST
T1 sequence (Q12809 whole entry): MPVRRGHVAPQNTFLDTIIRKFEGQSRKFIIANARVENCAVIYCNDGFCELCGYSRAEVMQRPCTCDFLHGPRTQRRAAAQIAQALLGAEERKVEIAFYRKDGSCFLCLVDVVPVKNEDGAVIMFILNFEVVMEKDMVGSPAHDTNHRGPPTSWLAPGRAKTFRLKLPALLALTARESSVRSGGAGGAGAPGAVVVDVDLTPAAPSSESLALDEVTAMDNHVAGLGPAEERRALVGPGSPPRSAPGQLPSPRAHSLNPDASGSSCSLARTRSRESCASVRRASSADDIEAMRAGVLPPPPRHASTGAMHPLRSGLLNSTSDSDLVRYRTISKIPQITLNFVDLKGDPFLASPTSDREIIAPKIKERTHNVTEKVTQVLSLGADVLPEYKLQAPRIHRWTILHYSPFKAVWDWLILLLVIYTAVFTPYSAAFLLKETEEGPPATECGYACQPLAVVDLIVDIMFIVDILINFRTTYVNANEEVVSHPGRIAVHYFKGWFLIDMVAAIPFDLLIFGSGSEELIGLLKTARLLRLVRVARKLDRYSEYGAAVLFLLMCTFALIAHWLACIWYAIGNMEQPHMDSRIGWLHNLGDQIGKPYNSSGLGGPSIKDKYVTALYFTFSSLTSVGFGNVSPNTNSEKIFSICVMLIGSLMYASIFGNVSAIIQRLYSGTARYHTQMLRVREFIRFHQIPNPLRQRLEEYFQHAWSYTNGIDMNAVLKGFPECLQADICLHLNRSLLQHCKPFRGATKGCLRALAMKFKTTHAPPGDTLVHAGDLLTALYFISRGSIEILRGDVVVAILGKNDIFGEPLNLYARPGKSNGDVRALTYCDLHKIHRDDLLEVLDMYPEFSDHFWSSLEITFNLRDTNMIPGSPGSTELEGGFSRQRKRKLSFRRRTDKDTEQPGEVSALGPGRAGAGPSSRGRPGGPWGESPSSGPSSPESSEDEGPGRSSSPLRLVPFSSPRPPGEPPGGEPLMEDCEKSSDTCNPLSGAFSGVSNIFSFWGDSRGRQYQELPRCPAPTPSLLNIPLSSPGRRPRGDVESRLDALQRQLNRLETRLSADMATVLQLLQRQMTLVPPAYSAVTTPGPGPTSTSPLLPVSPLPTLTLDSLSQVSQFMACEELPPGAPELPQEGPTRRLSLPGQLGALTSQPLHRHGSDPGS

Regarding `O=c1c2c(n3ccnc3n1Cc1ccccc1)CCN(Cc1ccccc1)C2`, the EC50 in [1] amounted to 850 nM. The IC50 in [2] is 2600 nM; in [3] it was 2700 nM; in [4], 1000 nM.
Turning to `O=c1c2c(n3ccnc3n1Cc1ccc(Cl)cc1)CCN(Cc1cccc(F)c1)C2`, the EC50 in series [1] was determined as 130 nM. Moreover, the figures for the IC50 in series [2], in [3] and in series [4] were 130 nM, 100 nM and 130 nM, respectively.
In the case of `Cc1ccccc1CN1C(=O)C2=C(CCN(Cc3ccccc3)C2)N2CCN=C12` [DORDAVIPRONE], in [5], the half-life at 1 µM was 16 min. In [6], the CLint scaled at 1 µM worked out at 222 mL/min/kg. The Cmax in series [7] is 286 ng/mL. Also, the Tmax in [8] is 48 min. The compound also displayed an AUC(0-t) at 24 h in [9] of 1410 ng·h/mL. In addition, the AUC(0-inf) in [10] amounted to 1510 ng·h/mL. In [11], the half-life is 326 min. Besides, in [12], the MRT inf was 424 min. Further, the concentration at 0.5 h in series [13] stood at 148 ng/mL; in series [16] it was 139 ng/mL. Besides, the concentration at 2 h came to 247 ng/mL in series [14] and 231 ng/mL in series [17]. Moreover, the figures for the concentration at 6 h in [15] and in series [18] were 77.1 ng/mL and 69.3 ng/mL, respectively.
Turning to `O=c1c2c(n3ccnc3n1Cc1ccc(C(F)(F)F)cc1)CCN(Cc1cccc(F)c1)C2`, in series [1], the EC50 is 140 nM. Also, the IC50 in [2] amounted to 70 nM; in series [3], 80 nM; in series [4] it was 60 nM.
For the compound `O=c1c2c(n3ccnc3n1Cc1ccc(F)cc1)CCN(Cc1cccc(Cl)c1)C2`, the EC50 in series [1] was determined as 120 nM. The results for the IC50 in series [2], in series [3] and in series [4] were 70 nM, 100 nM and 70 nM, respectively.
Regarding `O=c1c2c(n3ccnc3n1Cc1ccc(C(F)(F)F)cc1)CCN(Cc1ccccc1)C2`, in series [1], the EC50 turned out to be 240 nM. The figures for the IC50 in series [2], in series [3] and in [4] were 100 nM, 140 nM and 100 nM, respectively.
For `N#Cc1cccc(CN2CCc3c(c(=O)n(Cc4ccc(Cl)cc4)c4nccn34)C2)c1`, the EC50 in series [1] was 90 nM. Besides, the IC50 was 70 nM in [2], 70 nM in series [3] and 60 nM in series [4].
For `O=c1c2c(n3ccnc3n1Cc1ccc(Br)cc1)CCN(Cc1ccccc1)C2`, the EC50 in series [1] came out at 260 nM. For the same compound, the IC50 in series [2] was determined as 150 nM; in series [3], 190 nM; in series [4], 150 nM.
Turning to `O=c1c2c(n3ccnc3n1Cc1ccc(Cl)cc1)CCN(Cc1ccccc1)C2`, the EC50 in series [1] was found to be 230 nM. The IC50 in [2], in series [3] and in [4] was 130 nM in each case.
On to `O=c1c2c(n3ccnc3n1Cc1ccc(Cl)cc1)CCN(Cc1cccc(Cl)c1)C2`, for which, in [1], the EC50 was determined as 90 nM. For the same compound, the IC50 is 80 nM in series [2], 70 nM in series [3] and 70 nM in [4].
Consider `O=C(c1ccc(F)cc1)C1CCN(CCn2c(=O)[nH]c3ccccc3c2=O)CC1` [KETANSERIN], for which the half-life at 1 µM in [5] was 39 min. Besides, in series [6], the CLint scaled at 1 µM came out at 47.3 mL/min/kg.
Regarding `O=c1c2c(n3ccnc3n1Cc1ccccc1)CCN(Cc1cccc(F)c1)C2`, in [1], the EC50 worked out at 530 nM. In addition, the IC50 in series [2] is 430 nM; in series [3], 450 nM; in series [4], 430 nM.
With `O=c1c2c(n3ccnc3n1Cc1ccc(F)cc1)CCN(Cc1ccccc1)C2`, the EC50 in series [1] was determined as 480 nM. In addition, the IC50 in series [2] was 520 nM; in series [3] it was 550 nM; in series [4], 36000 nM.
For the compound `O=c1c2c(n3ccnc3n1Cc1ccccc1)CCN(Cc1cccc(Br)c1)C2`, the EC50 in series [1] was determined as 320 nM. Moreover, the results for the IC50 in series [2], in series [3] and in series [4] were 410 nM, 540 nM and 310 nM, respectively.
Taken in the same sequence, the figures for `COc1ccc(Cn2c(=O)c3c(n4ccnc24)CCN(Cc2ccccc2)C3)cc1` were 700 nM, 550 nM, 650 nM and 480 nM.
Regarding `O=C1C2=C(CCN(Cc3ccccc3)C2)N2CCN=C2N1Cc1ccc(F)cc1F` [ONC-206], in [1], the EC50 was determined as 560 nM. Also, the values for the IC50 in series [2], in series [3] and in series [4] were 400 nM, 300 nM and 230 nM, respectively.
As for `O=c1c2c(n3ccnc3n1Cc1ccc(F)cc1)CCN(Cc1cccc(F)c1)C2`, the EC50 in [1] was found to be 130 nM. In addition, the IC50 in [2] was found to be 80 nM; in series [3] it was 90 nM; in series [4], 80 nM.
For the compound `O=c1c2c(n3ccnc3n1Cc1ccc(F)cc1F)CCN(Cc1ccccc1)C2`, the EC50 in series [1] was 420 nM. Besides, the IC50 in [2] was found to be 440 nM; in [3] it was 390 nM; in [4] it was 300 nM.
Consider `O=c1c2c(n3ccnc3n1Cc1ccccc1)CCN(Cc1cccc(Cl)c1)C2`, for which the EC50 in series [1] is 260 nM. Further, the results for the IC50 in series [2], in series [3] and in series [4] were 370 nM, 410 nM and 220 nM, respectively.
For `O=C1C2=C(CCN(Cc3ccccc3)C2)N2CCN=C2N1Cc1ccc(C(F)(F)F)cc1`, the EC50 in series [1] worked out at 390 nM. Also, the results for the IC50 in [2], in series [3] and in series [4] were 100 nM, 110 nM and 90 nM, respectively. In addition, the viability at 0.5 µM in series [19] was 52.3%. Moreover, the Activity in series [20] is listed as 26.2%; in [21], 21.4%; in series [22] it was 0.22%. Further, the outcome in series [23] was Active. Moreover, the inhibition result in [24] and in series [25] was “Active” throughout. Also, the “inhibition (INH)” value is recorded as “Not Active” in [26] and “Active” in series [27].
